Series [1] in a line: CF transport assay in EYPC⊃CF vesicles (carrier activity). The class given is biochemical. On the set-up: key to Carrier activity: ‐ – ‐: No detectable activity at pH 5.5 and 7.4. The following applies: for Carrier activity: EYPC vesicles, pH 5.5 and 7.4, cargos heptaArg, protamine, polyArg ([AlMo6]: heptaArg and protamine only); for EC50: 5% error (SD); for Transport activity (in words): EYPC⊃CF vesicles, neutral pH, carrier then cargo. The source says: The capability of POMs to act as membrane carriers was explored first in large unilamellar vesicles (LUVs) loaded with carboxyfluorescein (CF).^[ [54], [55] ^] We selected […] representative cationic peptides, heptaarginine (heptaArg), heptalysine (heptaLys), protamine, and polyarginine (polyArg), as test cargos. Inside the LUVs, the CF dye was encapsulated at self‐quenching concentrations. With a suitable carrier, heptaArg can be taken up into the vesicles, bind with entrapped CF, and shuttle back to the exterior, diluting the previously quenched CF, and thereby restoring its fluorescence (Figure 1c). In the time‐resolved fluorescence experiments (Figure 2a), to test whether a particular POM acts as molecular carrier, the CF emission was continuously monitored during the addition of the inorganic carrier (t = 60 s) and after injection of the impermeable selected cargo (t = 120 s). Toward the end of the experiment (t = 600 s), the surfactant Triton X‐100 was added to release all the entrapped CF and allow normalization of the intensity data.
A thin lipid film was prepared by evaporating a lipid solution of EYPC (egg yolk phosphatidylcholine, 25 mg) in CHCl3 (1 mL) with a stream of nitrogen and then dried in vacuo overnight. The dry film was rehydrated with 1 mL buffer (50 mM CF, 10 mM Hepes, pH 7.4 or 50 mM CF, 10 mM Tris, pH 7.4) for 30 min at room temperature, subjected to freeze–thaw cycles (7 times) and extrusions (15 times) through a polycarbonate membrane (pore size 100 nm). Extravesicular components were removed by size exclusion chromatography (NAP‐25 column Sephadex G‐25 DNA grade) with 10 mM Hepes, 107 mM NaCl, pH 7.4, or 10 mM Hepes, 107 mM NaCl, pH 7.4. Phospholipid concentration was calculated by the Stewart assay.^[ [81] ^]
Acidic vesicles were prepared analogously but the rehydration and elution buffer were 50 mM CF, 10 mM Mes, pH 5.5 and 10 mM Mes, 107 mM NaCl, pH 5.5. respectively.
Vesicles stock solutions (5–10 µL) were diluted with the corresponding buffer in a disposable plastic cuvette and gently stirred (total volume 2000 µL, final lipid concentration 13 µM). Carboxyfluorescein fluorescence was monitored at λ em = 517 nm (λ ex = 492 nm) as a function of time after addition of POMs at 60 s, analyte at 120 s and Triton X‐100 (24 µL 1.2% wt/vol) at 600 s to lyse the vesicles, for calibration. Fluorescence intensities were normalized to fractional emission as (1) It=It−I0/I∞−I0 where I 0 = I t before POM addition and […] after lysis. For Hill analysis, I t before lysis was defined as transport activity, Y, and plotted against POM concentration, c, and fitted to the Hill Equation (2), to afford the activity in absence of POM, Y 0, the maximal activity, Y max, the concentration needed to achieve 50% of maximal activity, EC 50, and the Hill coefficient, n (2) Y=Y0+Ymax−Y0/1+EC50/c^n
In the transport measurements, where different carriers (POMs) are tested with the same cargo, the activator efficiency (E) is determined by their capacity to transport the impermeable cargo to the intravesicular region and is characterized by Y max, its maximal activity, and EC 50, the effective activator concentration. An ideal carrier reaches high Y max at low EC 50. To count both factors, the activator efficiency is defined as (3) E=YmaxpEC50/f were pEC 50 is the negative logarithm of the EC 50, and f a scaling factor, which was set to 20.6 to calibrate the highest (previously known) activation efficiency, E, as 10.^[ [55] ^]

Series [2] is described as follows: Hydrolysis/stability of POMs in buffer by NMR. The following applies: for Hydrolysis/stability pH 7.5: 10 mM Hepes or Tris, pH 7.4; for Hydrolysis/stability pH 7.5 / Hydrolysis/stability pH 5.5: 107 mM NaCl, NMR, long-term (24 h and longer); for Stability at pH 7.5 by NMR (in words): Hepes or Tris-HCl pH 7.5, 27Al, 31P or 183W NMR, fresh and aged 1-3 days; for Hydrolysis/stability pH 5.5: 10 mM Mes.
Procedure: First, their long‐term (24 h and longer) fate in aqueous solution (slightly acidic and neutral) was investigated by applying the active NMR nuclei in their composition (Table S9 and Figures S24–S37, see the Supporting Information for details).
NMR-spectroscopic characterization of identity and stability
NMR spectroscopy for all POMs tested was performed under experimental conditions.

Series [3] deals with CHO‐K1 cells. Kind of series: FITC-Arg8 uptake in live cells, confocal imaging. The following applies: 30 min, 37 °C; for FITC-Arg8 uptake promoted by carrier: carrier 5 µM, 5 min, then FITC-Arg8 5 µM, four biological replicates. The class given is cell-based, Chinese hamster. On the procedure:
CHO‐K1 cells were plated into µ‐Slide 8‐well plates (ibidi) at a density of ≈1 × 10^5 cells per well (per 1 mL) and incubated for 24 h in Ham's F‐12 medium containing 10% v/v fetal bovine serum and 1.0% penicillin streptomycin at 37 °C in a 5% CO2 atmosphere. The cells were washed twice with Hank's buffer, incubated for 5 min at 37 °C in Ham's F‐12 medium without phenol red with carrier (5 µM), and subsequently in Ham's F‐12 medium without phenol red with 5 µM FITC‐Arg8 for 30 min at 37 °C. Cells in the absence of carrier were used as control. The cells were washed twice with Hank's buffer containing 100 µg mL^−1 heparin and then washed twice with Ham's F‐12 medium without phenol red. The nuclear staining was performed by incubating the cells with 10 µg mL^−1 Hoechst 33 342 (bis‐benzimide H33342 trihydrochloride) for 10 min at 37 °C. Cells were directly imaged as stated above.

In series [4] the test system is methicillin-resistant Staphylococcus aureus (SR3605, ATCC43300). The following applies: in combination with β-Lactamase, Mueller-Hinton broth, pH 7.4, 34 °C, cited from earlier work. The source says: page 4: 2. Literature survey Table S1. Survey of experimentally proven membrane penetration of POMs according to a search in Scopus (“polyoxometalate” and “membrane penetration”) up to the submission date of the manuscript.

Series [5] is described as follows: Membrane disruption of liposomes by POM alone (CF fluorescence, DLS). The class given is biochemical. The settings on record: higher than 100 µM POM, 10 mM Tris, 107 mM NaCl, pH 7.4. On the procedure:
It should be noted that the addition of POMs alone (without cargo) retained the stability of the liposomes in the studied concentration range (up to 100 µM), that is, neither an increase in CF fluorescence nor changes in size distribution as obtained by dynamic light scattering experiments (DLS, see Figure S4, Supporting Information) were observed, which would have signaled membrane rupture. These negative controls allowed us to proceed to the carrier experiments, with added cargo.
DLS experiments of the vesicles were carried out on a Malvern Instruments DTS Nano 2000 Zeta‐Sizer. A POM concentration of 100 µM was chosen as default, since this is the highest concentration at which membrane transport was evaluated. The cargo concentration was set to be same as in the transport experiments, namely 10 µM for heptaarginine, 1 µM for protamine, and 0.1 µM for polyarginine. Note that the POMs themselves, with a size of ≈1 nm, fall below the detection limit (>10 nm) of the DLS instrument.
Figure S3. Transport activity, Y, for polyarginine (0.1 µM) in EYPC[…]CF liposomes as a function of the concentration of the different evaluated POMs. Solid lines correspond to the resulting fit with the Hill equation. Blue squares are data obtained at neutral pH, and red stars data obtained at acidic pH.
Table S4. Membrane transport parametersa) of active POMs at neutralb) and acidicc) pH.
HeptaArgd) Protaminee) PolyArgf) carrier pH Hydrolysis/Stability
Ymax [%]g) EC50h) [µM] E i) Ymax [%] EC50 [µM] E Ymax [%] EC50 [µM] E […]
Figure S5. Transport kinetics (left pannels), dose response curves (middle pannels) for cargo transport, and size distribution (by DLS, right pannels) for [PW12]3‒ (top) and [SiW12]4‒ (bottom), measured with EYPC[…]CF liposomes at pH 7.4, but preserving the POM solution at pH 1.2 before addition. As shown in panel a, the addition of [PW12]3‒ alone gave a fluorescence increase, pointing to membrane disruption, which was confirmed by DLS (panel c). […]

Setting [6] is: CF assay, EYPC LUVs, 0.1 µM polyArg, pH 7.4, read-out: PolyArg EC 50.
[7] abbreviates: CF assay, EYPC LUVs, 0.1 µM polyArg, pH 7.4, ±2% error (SD).
[8] abbreviates: EYPC LUVs, 0.1 µM polyArg, pH 7.4, f = 20.6, 10% error.

Where two headings read alike, the source gives them in different places.

With “Na5[α‐Al^IIIW^VI 12O40]·12H2O [[AlW12]^5‒]”, the “Carrier activity” value in series [1] is listed as “‐ – ‐ ^k)”. In addition, in series [2], the “Hydrolysis/stability pH 7.5” value was “Stable” and the “Stability at pH 7.5 by NMR (in words)” value is on record as “stable at pH 7.5”.

Take “(C4H12N)4[α‐HAl^IIIGe^IVW^VI 11O39(H2O)]·11H2O [[AlGeW11]^5‒]”: the “Carrier activity” value in series [1] is recorded as “‐ – ‐ ^k)”. Besides, in series [2], the “Hydrolysis/stability pH 7.5” value is “Stable” and the “Stability at pH 7.5 by NMR (in words)” value is “integrity at pH 7.5”.

Regarding `O=C(O)CCCc1ccc2ccc3cccc4ccc1c2c34` [PyBu^‒, pyrenebutyrate, reference compound], in series [1] (CF assay, EYPC LUVs, 13 µM lipid, 10 µM heptaArg, 10 mM Hepes or Tris, 107 mM NaCl, pH 7.4, 10 min, Hill fit, triplicates, ±2% error (SD)), the “HeptaArg Y max” value was 100%. The EC50 worked out at 12 µM in series [1] (setting [6]); 39 µM in series [1] (CF assay, EYPC LUVs, 1 µM protamine, pH 7.4, read-out: Protamine EC 50); 100 µM in series [1] (CF assay, EYPC LUVs, 10 µM heptaArg, pH 7.4, carrier concentration for 50% of Ymax, read-out: HeptaArg EC 50). The “PolyArg Y max” value in series [1] (setting [7]) was found to be 91%. The “Protamine Y max” value in series [1] (CF assay, EYPC LUVs, 1 µM protamine, pH 7.4, ±2% error (SD)) is 77%. Besides, the “PolyArg E (activation efficiency)” value in series [1] (setting [8]) amounted to 8.5. In addition, the “Protamine E (activation efficiency)” value in series [1] (EYPC LUVs, 1 µM protamine, pH 7.4, f = 20.6, 10% error) was found to be 5.3. Also, the “HeptaArg E (activation efficiency)” value in series [1] (EYPC LUVs, 10 µM heptaArg, pH 7.4, E = Ymax(pEC50/f), f = 20.6, 10% error) was 4.8. For the same molecule, in series [1] (heptaarginine 10 µM, cargo before carrier (Figure S6)), the “Efficacy when the sequence of addition was inverted” value was “significantly reduces its activity”. For the same molecule, the “Hydrolysis/stability pH 7.5” value in series [2] is recorded as “Stable”. Besides, the “Hydrolysis/stability pH 5.5” value in series [2] is on record as “Stable”. The “FITC-Arg8 uptake promoted by carrier” value in series [3] is “did not achieve efficient uptake”.

Regarding “5(6)‐fluorescein isothiocyanate‐labelled octaarginine [FITC‐Arg8]”, the “Uptake of FITC-Arg8 without carrier” value in series [3] (FITC-Arg8 5 µM) was “minor punctate fluorescence”.

For the molecule B12Br12 ^2‒ [reference compound], in series [2], the “Hydrolysis/stability pH 7.5” value is listed as “Stable” and the “Hydrolysis/stability pH 5.5” value is listed as “Stable”. The “FITC-Arg8 uptake promoted by carrier” value in series [3] was “did not achieve efficient uptake”.

In the case of `Cc1onc(-c2ccccc2)c1C(=O)N[C@@H]1C(=O)N2[C@@H]1SC(C)(C)[C@@H]2C(=O)O` [oxacillin], the MIC in series [4] (ref [8]) and in series [4] (ref [9]) was 256 µg/mL each time.

As for “Na3[Al^III(OH)6Mo^VI 6O18]·2H2O [[AlMo6]^3‒]”, the EC50 in series [1] (setting [6]) amounted to 11 µM. The “PolyArg Y max” value in series [1] (setting [7]) came to 33%. The “PolyArg E (activation efficiency)” value in series [1] (setting [8]) is reported as 3.1. Moreover, in series [1], the “Carrier activity” value is recorded as “‐ – ‐ ^k)” and the “Transport activity (in words)” value is reported as “incipient transport activity, but only for polyarginine as cargo”. Moreover, the “Hydrolysis/stability pH 7.5” value in series [2] is “Stable”.

Regarding “K4[α‐Si^IVW^VI 12O40]·14H2O [[SiW12]^4‒]”, in series [1], the “Carrier activity” value is “‐ – ‐ ^k) , ^m)” and the “Transport activity (in words)” value is “neither an interaction with the membrane nor cargo transport”. Moreover, the “Cargo transport with POM solution kept at pH 1.2” value in series [1] (EYPC⊃CF liposomes at pH 7.4, POM solution preserved at pH 1.2 before addition) is on record as “showed the desired cargo transport at acidic pH, without membrane disruption”. In series [2], the “Stability at pH 7.5 by NMR (in words)” value was “[SiIVWVI11O39]8‒ is predominant”. In series [5], the “Vesicle lysis at higher concentrations” value is listed as “led to vesicle lysis”.

The values above are taken from PMC11475408, “All‐Inorganic Polyoxometalates Act as Superchaotropic Membrane Carriers” (Advanced Materials (Deerfield Beach, Fla.), 2023).
